The results in this text go back to patent US20230391778A1, “INDOLIN-2-ONE OR PYRROLO -PYRIDIN -2 -ONE DERIVATIVES” (Hoffmann-La Roche Inc., priority 2014, published 2023).

In one assay the target is T1, mouse ENT-1 transporter (Mus musculus, UniProt Q9JIM1).
T1 construct: expressed in transfected cells
T1 sequence (Q9JIM1 1-460): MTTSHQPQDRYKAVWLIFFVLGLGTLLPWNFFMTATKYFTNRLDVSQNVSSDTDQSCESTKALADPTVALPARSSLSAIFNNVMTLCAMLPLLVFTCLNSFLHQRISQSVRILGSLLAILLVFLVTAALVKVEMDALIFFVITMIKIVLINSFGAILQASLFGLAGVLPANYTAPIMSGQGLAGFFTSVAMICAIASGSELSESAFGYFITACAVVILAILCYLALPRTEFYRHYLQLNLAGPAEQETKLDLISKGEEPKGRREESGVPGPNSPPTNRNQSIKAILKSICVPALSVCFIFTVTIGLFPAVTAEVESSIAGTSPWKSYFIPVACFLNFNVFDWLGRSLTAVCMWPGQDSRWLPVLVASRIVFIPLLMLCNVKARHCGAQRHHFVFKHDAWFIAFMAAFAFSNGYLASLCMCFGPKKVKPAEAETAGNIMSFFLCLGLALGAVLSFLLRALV
Description: Measure of adenosine transport activity (ENT1 adenosine uptake inhibition). It is filed as cell-based. Conditions: stable cells expressing mouse ENT-1, [2,8-3H]-adenosine 6 nM, 20 min. A digest of the protocol:
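Stable mouse ENT-1 cells, 60,000/well, washed into pH 7.4 Hepes-Tris uptake buffer and incubated at RT with compound (1% DMSO final) for 20 min with shaking. Non-specific uptake defined with 10 μM NBTI; cell-associated radioactivity counted by scintillation after ice-cold washes.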

Assay [1] deals with L-687,414-induced hyperlocomotion. Description: L-687,414-induced hyperlocomotion. It is filed as in vivo, mouse. Conditions: Dose ip 30 mg/kg, mice, 50 mg/kg s.c. L-687,414; for inhibition in vivo at 30 mg/kg: Mus musculus. The procedure:
The described compounds of formula I reduce L-687,414-induced hyperlocomotion. This was assessed by using a computerized Digiscan 16 Animal Activity Monitoring System (Omnitech Electronics, Columbus, Ohio) to quantify locomotor activity. Animals were kept under a 12 h light/dark cycle and experiments were performed during the light period. Each activity monitoring chamber consisted of a Plexiglas box (41×41×28 cm; W×L×H) with sawdust bedding on the floor surrounded by invisible horizontal and vertical infrared sensor beams. The test boxes were divided by a Plexiglas cross providing each mouse with 20×20 cm of moving space. Cages were connected to a Digiscan Analyzer linked to a computer that constantly collected the beam status information. Records of photocell beam interruptions for individual animals were taken every 5 min over the duration of the experimental session and the sum of the first 6 periods was used as the final parameter. At least 8 mice were used in each treatment group. Compounds were administered either p.o. 15 min before a s.c. injection of 50 mg/kg of L-687,414, or i.p. at the same time as a s.c. injection of 50 mg/kg of L-687,414. Mice were then transferred from their home cage to the recording chambers for a 15-min habituation phase allowing free exploration of the new environment. Horizontal activity was then recorded for a 30-min time period. The % inhibition of L-687,414-induced hyperlocomotion was calculated according to the equation:
((Veh+L-687,414 horizontal activity−drug+L-687,414 horizontal activity)/Veh+L-687,414 horizontal activity)×100
ID50 values, defined as doses of each compound producing 50% inhibition of L-687,414-induced hyperlocomotion, were calculated by linear regression analysis of a dose-response data using an Excel-based computer-fitting program.
As data was not presupposed to be normally distributed, groups treated with test compounds were statistically compared with the control (vehicle-treated) group using one-tailed Mann Whitney U tests. In statistics, the Mann-Whitney U test (also called the Mann-Whitney-Wilcoxon (MWW) or Wilcoxon rank-sum test) is a non-parametric statistical hypothesis test for assessing whether one of two samples of independent observations tends to have larger values than the other. It is one of the most well-known non-parametric significance tests. […] P values given in table 1 are one-tailed since only decreases in locomotion were expected and tested for (Mann, H. B., Whitney, D. R. (1947), “On a Test of Whether one of Two Random Variables is Stochastically Larger than the Other”, Annals of Mathematical Statistics, 18 (1), 50-60).

In general, IC50 refers to the point on the concentration scale where inhibition reaches its midpoint. Low values mean inhibition by little substance, high ones a need for much substance. On mouse ENT-1 transporter, “1-(2-cyclopropylpyrimidin-5-yl)-3,3-dimethyl-6-(2-methylpyrimidin-5-yl)indolin-2-one [Example 116]” had a concentration for half-maximal inhibition (IC50) of 230 nM. In assay [1], the “L-687,414-induced hyperlocomotion Inhibition, ip [%]” value is on record as 92.8%. The matching figures for “3,3-dimethyl-1,6-bis(5-methylpyrazin-2-yl)indolin-2-one [Example 91]”: 1820 nM and 73.7%. As a reminder, the inhibition in vivo is the percentage by which the read-out fell short of the control. Read a low inhibition in vivo as a weak effect. In the case of `Cc1ncc(-c2ccc3c(c2)N(c2ccncc2)C(=O)C3(C)C)cn1` [Example 1, 3,3-Dimethyl-6-(2-methylpyrimidin-5-yl)-1-(pyridin-4-yl)indolin-2-one], half-maximal inhibition against mouse ENT-1 transporter (IC50) was put at 431 nM. In assay [1], the inhibition in vivo at 30 mg/kg was found to be 95.4%. Taken in the same sequence, the figures for `Cc1ncc(-c2ccc3c(c2)N(c2cn(C)cn2)C(=O)C3(C)C)cn1` [Example 2, 3,3-Dimethyl-1-(1-methyl-1H-imidazol-4-yl)-6-(2-methylpyrimidin-5-yl)indolin-2-one] were 613 nM and 95.7%. Taken in the same sequence, the figures for `Cc1ncc(-c2ccc3c(c2)N(c2ccn(C)n2)C(=O)C3(C)C)cn1` [Example 4, 3,3-Dimethyl-1-(1-methyl-1H-pyrazol-3-yl)-6-(2-methylpyrimidin-5-yl)indolin-2-one] were 951 nM and 93.4%. For `Cc1cc(N2C(=O)C(C)(C)c3ccc(-n4cnc(C)c4)cc32)ccn1` [Example 22, 3,3-Dimethyl-6-(4-methylimidazol-1-yl)-1-(2-methyl-4-pyridyl)indolin-2-one], in assay [1], 30 mg/kg produced 63.8% inhibition in vivo. On the same count and under the same terms, under `Cc1ccc(N2C(=O)C(C)(C)c3ccc(-c4nnc(C)o4)cc32)cn1` [Example 34, 3,3-Dimethyl-6-(5-methyl-1,3,4-oxadiazol-2-yl)-1-(6-methyl-3-pyridyl)indolin-2-one] stands 59.7%. Turning to `CC(C)c1cn(-c2ccc3c(c2)N(c2ccn(C)n2)C(=O)C3(C)C)cn1` [Example 37, 6-(4-Isopropylimidazol-1-yl)-3,3-dimethyl-1-(1-methylpyrazol-3-yl)indolin-2-one], the midpoint of inhibition against mouse ENT-1 transporter, the IC50, lay at 6750 nM. Besides, 30 mg/kg produced 73.8% inhibition in vivo in assay [1]. At mouse ENT-1 transporter, `Cc1ncc(-c2ccc3c(c2)N(c2ccnc(F)c2)C(=O)C3(C)C)cn1` [Example 45, 1-(2-Fluoropyridin-4-yl)-3,3-dimethyl-6-(2-methylpyrimidin-5-yl)indolin-2-one] displayed an IC50 of 1000 nM. This compound had an inhibition in vivo at 30 mg/kg in assay [1] of 80.5%. In the case of `Cc1ncc(-c2ccc3c(c2)N(c2ccn(C)n2)C(=O)C3(C)C)o1` [Example 49, 3,3-Dimethyl-6-(2-methyloxazol-5-yl)-1-(1-methylpyrazol-3-yl)indolin-2-one], 30 mg/kg produced 47.1% inhibition in vivo in assay [1].

`Cc1ncc(-c2ccc3c(c2)N(c2ccc(C)c(C)n2)C(=O)C3(C)C)cn1` [Example 70, 1-(5,6-dimethylpyridin-2-yl)-3,3-dimethyl-6-(2-methylpyrimidin-5-yl)indolin-2-one]: the half-inhibitory concentration (IC50) against mouse ENT-1 transporter was determined as 340 nM. Moreover, in assay [1], testing at 30 mg/kg gave an inhibition in vivo of 93.5%.

As for `Cc1ncc(-c2ccc3c(c2)N(c2cnccn2)C(=O)C3(C)C)cn1` [Example 77, 3,3-dimethyl-6-(2-methylpyrimidin-5-yl)-1-(pyrazin-2-yl)indolin-2-one], on mouse ENT-1 transporter, the midpoint of inhibition, the IC50, lay at 2410 nM. The compound further displayed an inhibition in vivo at 30 mg/kg in assay [1] of 92.6%. As for `Cc1ncc(-c2ccc3c(c2)N(c2nc(C)n(C)n2)C(=O)C3(C)C)cn1` [Example 78, 1-(1,5-dimethyl-1H-1,2,4-triazol-3-yl)-3,3-dimethyl-6-(2-methylpyrimidin-5-yl)indolin-2-one], at 30 mg/kg the inhibition in vivo in assay [1] was 89.9%. As to `Cc1ncc(-c2ccc3c(c2)N(c2ncn(C)n2)C(=O)C3(C)C)cn1` [Example 82, 3,3-dimethyl-1-(1-methyl-1H-1,2,4-triazol-3-yl)-6-(2-methylpyrimidin-5-yl)indolin-2-one], at 30 mg/kg the inhibition in vivo in assay [1] was 89.6%. Turning to `Cc1ncc(-c2ccc3c(c2)N(c2ccncn2)C(=O)C3(C)C)cn1` [Example 93, 3,3-dimethyl-6-(2-methylpyrimidin-5-yl)-1-(pyrimidin-4-yl)indolin-2-one], the inhibition in vivo at 30 mg/kg in assay [1] worked out at 92.4%. On mouse ENT-1 transporter, `Cc1ncc(-c2ccc3c(c2)N(c2cnc(C4CC4)cn2)C(=O)C3(C)C)cn1` [Example 95, 1-(5-cyclopropylpyrazin-2-yl)-3,3-dimethyl-6-(2-methylpyrimidin-5-yl)indolin-2-one] showed a half-inhibitory concentration (IC50) of 47 nM. The inhibition in vivo at 30 mg/kg in assay [1] is 76.9%. In turn, `Cc1ncc(-c2ccc3c(c2)N(c2cncc(C4CC4)n2)C(=O)C3(C)C)cn1` [Example 97, 1-(6-cyclopropylpyrazin-2-yl)-3,3-dimethyl-6-(2-methylpyrimidin-5-yl)indolin-2-one] had an IC50 at mouse ENT-1 transporter of 102 nM. In assay [1], this compound gave an inhibition in vivo at 30 mg/kg of 78.5%. In the case of `Cc1cc(-c2cc3c(cn2)C(C)(C)C(=O)N3c2ccc(C)nn2)ccn1` [Example 109, 3,3-dimethyl-1-(6-methylpyridazin-3-yl)-6-(2-methylpyridin-4-yl)-1H-pyrrolo[3,2-c]pyridin-2(3H)-one], testing at 30 mg/kg in assay [1] gave an inhibition in vivo of 51.3%. Consider `Cc1cc(-c2cc3c(cn2)C(C)(C)C(=O)N3c2cnn(C)c2)ccn1` [Example 110, 3,3-dimethyl-1-(1-methyl-1H-pyrazol-4-yl)-6-(2-methylpyridin-4-yl)-1H-pyrrolo[3,2-c]pyridin-2(3H)-one], for which, in assay [1], the inhibition in vivo at 30 mg/kg stood at 58.5%.

As to `Cc1cc(-c2cc3c(cn2)C(C)(C)C(=O)N3c2cn(C)cn2)ccn1` [Example 111, 3,3-dimethyl-1-(1-methyl-1H-imidazol-4-yl)-6-(2-methylpyridin-4-yl)-1H-pyrrolo[3,2-c]pyridin-2(3H)-one], the inhibition in vivo at 30 mg/kg in assay [1] turned out to be 51%. As for `Cc1ncc(-c2ccc3c(c2)N(c2ncc(Cl)cn2)C(=O)C3(C)C)cn1` [Example 113, 1-(5-chloropyrimidin-2-yl)-3,3-dimethyl-6-(2-methylpyrimidin-5-yl)indolin-2-one], the IC50 on mouse ENT-1 transporter was found to be 203 nM. In assay [1], the inhibition in vivo at 30 mg/kg worked out at 91.1%.

At mouse ENT-1 transporter, `Cc1ncc(-c2ccc3c(c2)N(c2ccnnc2)C(=O)C3(C)C)cn1` [Example 120, 3,3-dimethyl-6-(2-methylpyrimidin-5-yl)-1-(pyridazin-4-yl)indolin-2-one] returned an IC50 of 3600 nM. Also, the inhibition in vivo at 30 mg/kg in assay [1] came out at 90.8%. Taken in the same sequence, the figures for `Cc1cc(N2C(=O)C(C)(C)c3ccc(-c4cnc(C)nc4)cc32)sn1` [Example 124, 3,3-dimethyl-1-(3-methylisothiazol-5-yl)-6-(2-methylpyrimidin-5-yl)indolin-2-one] were 226 nM and 53.3%. The matching figures for `Cc1ncc(-c2ccc3c(c2)N(c2ncc(C)s2)C(=O)C3(C)C)cn1` [Example 125, 3,3-dimethyl-6-(2-methylpyrimidin-5-yl)-1-(5-methylthiazol-2-yl)indolin-2-one]: 132 nM and 52%. Taken in the same sequence, the figures for `Cc1ncc(-c2ccc3c(c2)N(c2cnnc(Cl)c2)C(=O)C3(C)C)cn1` [Example 126, 1-(6-chloropyridazin-4-yl)-3,3-dimethyl-6-(2-methylpyrimidin-5-yl)indolin-2-one] were 2210 nM and 74.7%.

The compound `Cc1ncc(-c2ccc3c(c2)N(c2nccnc2C)C(=O)C3(C)C)cn1` [Example 127, 3,3-dimethyl-1-(3-methylpyrazin-2-yl)-6-(2-methylpyrimidin-5-yl)indolin-2-one] came in with an IC50 at mouse ENT-1 transporter of 7730 nM. Moreover, in assay [1], the inhibition in vivo at 30 mg/kg is 72.8%.
